The text below walks through data of US9346815B2, “5-chloro-2-difluoromethoxyphenyl pyrazolopyrimidine compounds, compositions and methods of use thereof” (Genentech, Inc., priority 2014, dated 2016).

Counter-ions that a name gives are not always drawn.

The target of assay [1] is isolated recombinant JAK2 kinase domain (Homo sapiens (Human), UniProt O60674). Kind of assay: JAK2 enzyme assay (Caliper LabChip, peptide phosphorylation). Type of assay: biochemical. The following applies: 25 μM ATP.
Sequence of isolated recombinant JAK2 kinase domain (O60674 849-1124): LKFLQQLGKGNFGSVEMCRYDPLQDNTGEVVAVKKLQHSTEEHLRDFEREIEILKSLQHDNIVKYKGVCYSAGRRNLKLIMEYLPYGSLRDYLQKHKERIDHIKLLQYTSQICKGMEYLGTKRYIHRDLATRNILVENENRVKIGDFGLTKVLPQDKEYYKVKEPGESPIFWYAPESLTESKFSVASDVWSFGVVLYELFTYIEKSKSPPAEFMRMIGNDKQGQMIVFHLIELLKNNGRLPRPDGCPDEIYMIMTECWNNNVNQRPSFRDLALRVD
The target in assay [2] is isolated recombinant JAK1 kinase domain (Homo sapiens (Human), UniProt P23458). The experiment in a line: JAK1 enzyme assay (Caliper LabChip, peptide phosphorylation). The class given is biochemical. The following applies: isolated recombinant JAK1 kinase domain, 25 μM ATP.
Sequence of isolated recombinant JAK1 kinase domain (P23458 875-1153): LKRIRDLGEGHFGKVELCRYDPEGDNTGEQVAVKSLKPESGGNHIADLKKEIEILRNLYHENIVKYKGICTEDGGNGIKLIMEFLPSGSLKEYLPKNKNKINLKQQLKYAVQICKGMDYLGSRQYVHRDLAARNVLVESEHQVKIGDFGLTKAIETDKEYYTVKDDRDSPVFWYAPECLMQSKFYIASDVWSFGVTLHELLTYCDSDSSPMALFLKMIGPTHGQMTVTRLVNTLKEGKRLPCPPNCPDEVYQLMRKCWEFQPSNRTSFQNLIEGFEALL
The subject of assay [3] is JAK1-dependent STAT6 phosphorylation downstream of IL-13 stimulation in TF-1 human erythroleukemia cells. The experiment in a line: JAK1 pathway assay in TF-1 cells (IL-13-pSTAT6, MSD). Type of assay: cell-based. The conditions noted are these: Homo sapiens, TF-1, TF-1 cells, read-out: IL13-pSTAT6 EC50_TF-1. The gist of the method:
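TF-1 cells are starved of GM-CSF overnight and run in serum-free medium, while BEAS-2B cells stay in complete growth medium. Inhibition of STAT6 phosphorylation is measured by MSD.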

Consider `CCCCN(CC(F)(F)F)C1CCN(C(=O)Cn2cc(NC(=O)c3cnn4cccnc34)c(-c3cc(Cl)ccc3OC(F)F)n2)CC1` [Example 115, N-[1-[2-[4-[butyl(2,2,2-trifluoroethyl)amino]-1-piperidyl]-2-oxo-ethyl]-3-[5-chloro-2-(difluoromethoxy)phenyl]pyrazol-4-yl]pyrazolo[1,5-a]pyrimidine-3-carboxamide], for which the Ki – broadly, a measure of affinity in units of concentration, obtained from inhibition or displacement – came to 2.48 nM in assay [1] and 1.28 nM in assay [2]. In addition, the EC50 in assay [3] worked out at 57.7 nM.

`O=C(Nc1cn(CC(=O)N2CCC(N(Cc3ccccc3)CC(F)(F)F)CC2)nc1-c1cc(Cl)ccc1OC(F)F)c1cnn2cccnc12` [Example 116, N-[1-[2-[4-[benzyl(2,2,2-trifluoroethyl)amino]-1-piperidyl]-2-oxo-ethyl]-3-[5-chloro-2-(difluoromethoxy)phenyl]pyrazol-4-yl]pyrazolo[1,5-a]pyrimidine-3-carboxamide]: the Ki was 7.04 nM in assay [1] and 3.76 nM in assay [2]. Also, in assay [3], the EC50 was determined as 23.3 nM.

For the compound `CN(Cc1ccc(Br)cc1)C1CCN(C(=O)Cn2cc(NC(=O)c3cnn4cccnc34)c(-c3cc(Cl)ccc3OC(F)F)n2)CC1` [Example 119, N-[1-[2-[4-[(4-bromophenyl)methyl-methyl-amino]-1-piperidyl]-2-oxo-ethyl]-3-[5-chloro-2-(difluoromethoxy)phenyl]pyrazol-4-yl]pyrazolo[1,5-a]pyrimidine-3-carboxamide], the Ki was determined as 0.51 nM in assay [1] and 1.21 nM in assay [2]. The EC50 in assay [3] came to 20.8 nM.

On to `CN(Cc1ccc(C(C)(C)C)cc1)C1CCN(C(=O)Cn2cc(NC(=O)c3cnn4cccnc34)c(-c3cc(Cl)ccc3OC(F)F)n2)CC1` [Example 120, N-[1-[2-[4-[(4-tert-butylphenyl)methyl-methyl-amino]-1-piperidyl]-2-oxo-ethyl]-3-[5-chloro-2-(difluoromethoxy)phenyl]pyrazol-4-yl]pyrazolo[1,5-a]pyrimidine-3-carboxamide], for which the values for the Ki in assay [1] and in assay [2] were 0.23 nM and 0.3 nM, respectively. For the same compound, the EC50 in assay [3] turned out to be 118 nM.

In the case of `CN(Cc1ccc(Cl)c(Cl)c1)C1CCN(C(=O)Cn2cc(NC(=O)c3cnn4cccnc34)c(-c3cc(Cl)ccc3OC(F)F)n2)CC1` [Example 121, N-[3-[5-chloro-2-(difluoromethoxy)phenyl]-1-[2-[4-[(3,4-dichlorophenyl)methyl-methyl-amino]-1-piperidyl]-2-oxo-ethyl]pyrazol-4-yl]pyrazolo[1,5-a]pyrimidine-3-carboxamide], the inhibition constant Ki turned out to be 0.31 nM in assay [1] and 0.24 nM in assay [2]. Moreover, in assay [3], the EC50 is 140 nM.

Take `CN(Cc1cccc(Br)c1)C1CCN(C(=O)Cn2cc(NC(=O)c3cnn4cccnc34)c(-c3cc(Cl)ccc3OC(F)F)n2)CC1` [Example 122, N-[1-[2-[4-[(3-bromophenyl)methyl-methyl-amino]-1-piperidyl]-2-oxo-ethyl]-3-[5-chloro-2-(difluoromethoxy)phenyl]pyrazol-4-yl]pyrazolo[1,5-a]pyrimidine-3-carboxamide]: the Ki in assay [1] came to 0.17 nM; in assay [2], 0.27 nM. In assay [3], the EC50 came out at 24.9 nM.

Turning to `CC(C)Oc1ccc(CN(C)C2CCN(C(=O)Cn3cc(NC(=O)c4cnn5cccnc45)c(-c4cc(Cl)ccc4OC(F)F)n3)CC2)cc1` [Example 125, N-[3-[5-chloro-2-(difluoromethoxy)phenyl]-1-[2-[4-[(4-isopropoxyphenyl)methyl-methyl-amino]-1-piperidyl]-2-oxo-ethyl]pyrazol-4-yl]pyrazolo[1,5-a]pyrimidine-3-carboxamide], the Ki in assay [1] was 2.2 nM; in assay [2], 0.61 nM. The EC50 in assay [3] came out at 11.7 nM.

For `CN(Cc1ccc(Cl)cc1)C1CCN(C(=O)Cn2cc(NC(=O)c3cnn4cccnc34)c(-c3cc(Cl)ccc3OC(F)F)n2)CC1` [Example 126, N-[3-[5-chloro-2-(difluoromethoxy)phenyl]-1-[2-[4-[(4-chlorophenyl)methyl-methyl-amino]-1-piperidyl]-2-oxo-ethyl]pyrazol-4-yl]pyrazolo[1,5-a]pyrimidine-3-carboxamide], the inhibitory constant (Ki) in assay [1] turned out to be 1.8 nM; in assay [2], 0.63 nM. Besides, the EC50 in assay [3] turned out to be 14.9 nM.

Consider `CCCCOc1ccc(CN(C)C2CCN(C(=O)Cn3cc(NC(=O)c4cnn5cccnc45)c(-c4cc(Cl)ccc4OC(F)F)n3)CC2)cc1` [Example 127, N-[1-[2-[4-[(4-butoxyphenyl)methyl-methyl-amino]-1-piperidyl]-2-oxo-ethyl]-3-[5-chloro-2-(difluoromethoxy)phenyl]pyrazol-4-yl]pyrazolo[1,5-a]pyrimidine-3-carboxamide], for which the values for the Ki in assay [1] and in assay [2] were 2.44 nM and 0.78 nM, respectively. For the same compound, in assay [3], the EC50 is 72.4 nM.

`CN(Cc1cccc(C(F)(F)F)c1)C1CCN(C(=O)Cn2cc(NC(=O)c3cnn4cccnc34)c(-c3cc(Cl)ccc3OC(F)F)n2)CC1` [Example 128, N-[3-[5-chloro-2-(difluoromethoxy)phenyl]-1-[2-[4-[methyl-[[3-(trifluoromethyl)phenyl]methyl]amino]-1-piperidyl]-2-oxo-ethyl]pyrazol-4-yl]pyrazolo[1,5-a]pyrimidine-3-carboxamide]: the Ki in assay [1] came out at 3.09 nM; in assay [2], 1.12 nM. The EC50 in assay [3] was found to be 42.5 nM.

As to `Cc1ccc(CN(C)C2CCN(C(=O)Cn3cc(NC(=O)c4cnn5cccnc45)c(-c4cc(Cl)ccc4OC(F)F)n3)CC2)c(C)c1` [Example 129, N-[3-[5-chloro-2-(difluoromethoxy)phenyl]-1-[2-[4-[(2,4-dimethylphenyl)methyl-methyl-amino]-1-piperidyl]-2-oxo-ethyl]pyrazol-4-yl]pyrazolo[1,5-a]pyrimidine-3-carboxamide], the Ki in assay [1] was determined as 3.33 nM; in assay [2] it was 1.14 nM. Moreover, in assay [3], the EC50 stood at 14.2 nM.

Regarding `CN(Cc1ccc2ccccc2c1)C1CCN(C(=O)Cn2cc(NC(=O)c3cnn4cccnc34)c(-c3cc(Cl)ccc3OC(F)F)n2)CC1` [Example 130, N-[3-[5-chloro-2-(difluoromethoxy)phenyl]-1-[2-[4-[methyl(2-naphthylmethyl)amino]-1-piperidyl]-2-oxo-ethyl]pyrazol-4-yl]pyrazolo[1,5-a]pyrimidine-3-carboxamide], the Ki in assay [1] is 2.91 nM; in assay [2] it was 1.1 nM. The EC50 in assay [3] worked out at 32.3 nM.

`CN(Cc1ccc(F)c(Br)c1)C1CCN(C(=O)Cn2cc(NC(=O)c3cnn4cccnc34)c(-c3cc(Cl)ccc3OC(F)F)n2)CC1` [Example 131, N-[1-[2-[4-[(3-bromo-4-fluoro-phenyl)methyl-methyl-amino]-1-piperidyl]-2-oxo-ethyl]-3-[5-chloro-2-(difluoromethoxy)phenyl]pyrazol-4-yl]pyrazolo[1,5-a]pyrimidine-3-carboxamide]: the inhibition constant Ki came to 2.68 nM in assay [1] and 1.07 nM in assay [2]. In addition, in assay [3], the EC50 came out at 23.7 nM.

In the case of `O=C(Nc1cn(CC(=O)N2CCC(N3Cc4ccc(Cl)cc4C3)CC2)nc1-c1cc(Cl)ccc1OC(F)F)c1cnn2cccnc12` [Example 135, N-[3-[5-chloro-2-(difluoromethoxy)phenyl]-1-[2-[4-(5-chloroisoindolin-2-yl)-1-piperidyl]-2-oxo-ethyl]pyrazol-4-yl]pyrazolo[1,5-a]pyrimidine-3-carboxamide], the Ki in assay [1] was 1.15 nM; in assay [2] it was 0.52 nM. Besides, the EC50 in assay [3] was determined as 26.9 nM.

In the case of `CN(C)C1CCN(C(=O)Cn2cc(NC(=O)c3c(N)nn4cccnc34)c(-c3cc(Cl)ccc3OC(F)F)n2)C1` (stereo not drawn) [Example 136, 2-amino-N-[3-[5-chloro-2-(difluoromethoxy)phenyl]-1-[2-[3-(dimethylamino)pyrrolidin-1-yl]-2-oxo-ethyl]pyrazol-4-yl]pyrazolo[1,5-a]pyrimidine-3-carboxamide], the values for the Ki in assay [1] and in assay [2] were 0.25 nM and 0.64 nM, respectively. Further, in assay [3], the EC50 stood at 36.7 nM.

With `CN(C)C1CCN(C(=O)Cn2cc(NC(=O)c3c(N)nn4cccnc34)c(-c3cc(Cl)ccc3OC(F)F)n2)CC1` [Example 139, 2-amino-N-[3-[5-chloro-2-(difluoromethoxy)phenyl]-1-[2-[4-(dimethylamino)-1-piperidyl]-2-oxo-ethyl]pyrazol-4-yl]pyrazolo[1,5-a]pyrimidine-3-carboxamide], the results for the Ki in assay [1] and in assay [2] were 0.36 nM and 0.78 nM, respectively. Also, the EC50 in assay [3] stood at 40.2 nM.

Turning to `CN(CCO)C1CCN(C(=O)Cn2cc(NC(=O)c3c(N)nn4cccnc34)c(-c3cc(Cl)ccc3OC(F)F)n2)CC1` [Example 140, 2-amino-N-[3-[5-chloro-2-(difluoromethoxy)phenyl]-1-[2-[4-[2-hydroxyethyl(methyl)amino]-1-piperidyl]-2-oxo-ethyl]pyrazol-4-yl]pyrazolo[1,5-a]pyrimidine-3-carboxamide], the Ki worked out at 0.39 nM in assay [1] and 0.46 nM in assay [2]. The EC50 in assay [3] is 29.3 nM.

As for `COCCN(C)C1CCN(C(=O)Cn2cc(NC(=O)c3c(N)nn4cccnc34)c(-c3cc(Cl)ccc3OC(F)F)n2)CC1` [Example 141, 2-amino-N-[3-[5-chloro-2-(difluoromethoxy)phenyl]-1-[2-[4-[2-methoxy-ethyl(methyl)amino]-1-piperidyl]-2-oxo-ethyl]pyrazol-4-yl]pyrazolo[1,5-a]pyrimidine-3-carboxamide], the Ki in assay [1] worked out at 0.59 nM; in assay [2], 0.68 nM. For the same compound, in assay [3], the EC50 was 15 nM.

With `CC(=O)NCCCN1CCC(n2cc(NC(=O)c3cnn4cccnc34)c(-c3cc(Cl)ccc3OC(F)F)n2)CC1` [Example 142, Pyrazolo[1,5-a]pyrimidine-3-carboxylic acid [1-[1-(3-acetylaminopropyl)piperidin-4-yl]-3-(5-chloro-2-difluoromethoxyphenyl)-1H-pyrazol-4-yl]amide hydrochloride], the Ki in assay [1] was 0.38 nM; in assay [2], 1.65 nM. Further, in assay [3], the EC50 is 36.3 nM.
